Assays:
Aurora A = biological target: T1, Aurora A (Homo sapiens, UniProt O14965); assay: ADP-Glo kinase assay, Aurora A; assay type: biochemical
T1 construct: purchased Promega
T1 sequence (O14965 1-403): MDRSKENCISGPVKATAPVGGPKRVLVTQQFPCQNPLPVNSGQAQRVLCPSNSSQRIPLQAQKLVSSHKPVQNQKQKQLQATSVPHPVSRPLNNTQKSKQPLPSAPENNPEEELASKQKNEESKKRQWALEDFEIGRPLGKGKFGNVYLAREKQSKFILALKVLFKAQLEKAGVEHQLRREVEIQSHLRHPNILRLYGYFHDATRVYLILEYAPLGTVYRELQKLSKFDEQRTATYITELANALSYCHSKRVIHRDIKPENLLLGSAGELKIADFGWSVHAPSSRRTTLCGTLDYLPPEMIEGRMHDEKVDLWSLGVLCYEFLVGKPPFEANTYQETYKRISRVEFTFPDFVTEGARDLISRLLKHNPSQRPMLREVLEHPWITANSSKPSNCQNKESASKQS
Method: (§1) The ADP-Glo kinase assay (Promega, Madison, WI, USA) was used to screen compounds 5, 8–10, 14, 17, 19 and 24 for the tyrosine kinase (Kinase Selectivity Profiling System TK-1, Promega, Madison, WI, USA) and serine/threonine kinase (Kinase Selectivity Profiling System Other/CK-1, Promega, Madison, WI, USA) inhibition effects according to the manufacturer’s technical manual. The luminescence data were analyzed as described in our prior work.
(§2) The selectivity of the potential kinase inhibitor against a specific protein kinase or a specific family of kinases was investigated using the Kinase Selectivity Profiling System TK-1, Other/CK-1 and ADP-Glo™ Kinase assay kit (Promega, Madison, WI, USA).

Aurora B = biological target: T2, Aurora B (Homo sapiens, UniProt Q96GD4); assay: ADP-Glo kinase assay, Aurora B; assay type: biochemical
T2 construct: purchased Promega
T2 sequence (Q96GD4 whole entry): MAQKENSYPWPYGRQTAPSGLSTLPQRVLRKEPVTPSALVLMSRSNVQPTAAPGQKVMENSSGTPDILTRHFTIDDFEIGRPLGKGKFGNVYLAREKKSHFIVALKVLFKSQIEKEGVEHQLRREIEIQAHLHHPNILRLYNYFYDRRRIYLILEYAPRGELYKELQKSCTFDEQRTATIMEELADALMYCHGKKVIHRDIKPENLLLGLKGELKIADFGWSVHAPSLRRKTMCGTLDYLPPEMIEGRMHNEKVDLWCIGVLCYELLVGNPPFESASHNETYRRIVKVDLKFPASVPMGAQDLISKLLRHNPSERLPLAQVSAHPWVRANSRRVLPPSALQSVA
Method: as §1, §2

[1] = system: K562 (chronic myelogenous leukemia); assay: MTT cell proliferation assay, K562; assay type: cell-based; settings: Homo sapiens, K562, 72 h of exposition, read-out: Anti-proliferative activity IC50, K562
Method: (§3) Tests to determine the effects of the synthesized compounds on cell viability and the half-maximal inhibitory concentration (IC50) were performed using the MTT assay, as described in our prior work.
(§4) The target compounds 5, 6, 8–12, 14, 15, 17–22 and 24–26 were tested for antiproliferative activity against six cancer cell lines: K562 (chronic myelogenous leukemia), HL-60 (promyelocytic leukemia), MCF-7 (breast adenocarcinoma), HepG2 (human liver cancer), A549 (lung carcinoma) and OKP-GS (renal cell carcinoma). The RPMI 1788 cells (B lymphocyte, human) were used as a control to evaluate the system toxicity of the studied compounds to normal cells. Sorafenib, nilotinib and lapatinib were utilized as reference standards for comparison.

[2] = system: HepG2 (human liver cancer); assay: MTT cell proliferation assay, HepG2; assay type: cell-based; settings: Homo sapiens, HepG2, 72 h, HepG2, 72 h of exposition, read-out: Anti-proliferative activity IC50, HepG2
Method: as §3, §4

InsR (insulin receptor) = biological target: T3, InsR (insulin receptor) (Homo sapiens, UniProt P06213); assay: ADP-Glo kinase assay, InsR; assay type: biochemical
T3 construct: purchased Promega
T3 sequence (P06213 28-1382): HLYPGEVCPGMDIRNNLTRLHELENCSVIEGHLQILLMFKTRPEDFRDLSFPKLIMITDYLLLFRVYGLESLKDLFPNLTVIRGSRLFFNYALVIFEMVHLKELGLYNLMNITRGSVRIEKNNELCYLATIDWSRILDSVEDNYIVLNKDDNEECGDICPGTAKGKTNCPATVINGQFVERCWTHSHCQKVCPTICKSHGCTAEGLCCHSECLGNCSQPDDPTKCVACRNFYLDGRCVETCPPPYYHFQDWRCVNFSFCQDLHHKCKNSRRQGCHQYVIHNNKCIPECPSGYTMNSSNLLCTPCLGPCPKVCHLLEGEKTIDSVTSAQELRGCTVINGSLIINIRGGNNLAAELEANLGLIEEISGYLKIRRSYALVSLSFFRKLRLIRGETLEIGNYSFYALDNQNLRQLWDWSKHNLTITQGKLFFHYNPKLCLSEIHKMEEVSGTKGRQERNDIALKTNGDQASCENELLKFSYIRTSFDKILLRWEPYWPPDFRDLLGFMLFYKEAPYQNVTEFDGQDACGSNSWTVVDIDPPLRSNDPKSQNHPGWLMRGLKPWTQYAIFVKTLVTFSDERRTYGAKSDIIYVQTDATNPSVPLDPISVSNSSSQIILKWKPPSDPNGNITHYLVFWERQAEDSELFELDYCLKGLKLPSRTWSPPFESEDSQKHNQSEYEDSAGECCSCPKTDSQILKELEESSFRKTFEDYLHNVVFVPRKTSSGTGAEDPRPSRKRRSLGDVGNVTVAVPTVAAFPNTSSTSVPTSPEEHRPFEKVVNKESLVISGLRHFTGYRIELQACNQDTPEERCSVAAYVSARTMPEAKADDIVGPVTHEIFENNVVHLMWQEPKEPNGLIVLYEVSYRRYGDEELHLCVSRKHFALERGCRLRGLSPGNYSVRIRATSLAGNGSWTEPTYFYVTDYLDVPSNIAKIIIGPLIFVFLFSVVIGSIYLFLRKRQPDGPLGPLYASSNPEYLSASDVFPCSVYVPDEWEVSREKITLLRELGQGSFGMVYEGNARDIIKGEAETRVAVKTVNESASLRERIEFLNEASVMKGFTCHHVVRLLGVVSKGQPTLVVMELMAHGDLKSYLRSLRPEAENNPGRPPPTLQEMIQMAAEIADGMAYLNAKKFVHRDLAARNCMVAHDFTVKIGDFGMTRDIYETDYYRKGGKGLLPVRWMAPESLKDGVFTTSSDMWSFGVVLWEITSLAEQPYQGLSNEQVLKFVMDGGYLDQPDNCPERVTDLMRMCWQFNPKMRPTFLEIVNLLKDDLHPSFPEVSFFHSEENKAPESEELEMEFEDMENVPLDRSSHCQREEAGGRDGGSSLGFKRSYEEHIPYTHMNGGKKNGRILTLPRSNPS
Method: as §1, §2

PDGFRβ = biological target: T4, PDGFRβ (Homo sapiens, UniProt P09619); assay: ADP-Glo kinase assay, PDGFRβ; assay type: biochemical
T4 construct: purchased Promega
Method: as §1, §2

PDGFRα = biological target: T5, PDGFRα (Homo sapiens, UniProt P16234); assay: ADP-Glo kinase assay, PDGFRα; assay type: biochemical
T5 construct: purchased Promega
T5 sequence (P16234 24-1089): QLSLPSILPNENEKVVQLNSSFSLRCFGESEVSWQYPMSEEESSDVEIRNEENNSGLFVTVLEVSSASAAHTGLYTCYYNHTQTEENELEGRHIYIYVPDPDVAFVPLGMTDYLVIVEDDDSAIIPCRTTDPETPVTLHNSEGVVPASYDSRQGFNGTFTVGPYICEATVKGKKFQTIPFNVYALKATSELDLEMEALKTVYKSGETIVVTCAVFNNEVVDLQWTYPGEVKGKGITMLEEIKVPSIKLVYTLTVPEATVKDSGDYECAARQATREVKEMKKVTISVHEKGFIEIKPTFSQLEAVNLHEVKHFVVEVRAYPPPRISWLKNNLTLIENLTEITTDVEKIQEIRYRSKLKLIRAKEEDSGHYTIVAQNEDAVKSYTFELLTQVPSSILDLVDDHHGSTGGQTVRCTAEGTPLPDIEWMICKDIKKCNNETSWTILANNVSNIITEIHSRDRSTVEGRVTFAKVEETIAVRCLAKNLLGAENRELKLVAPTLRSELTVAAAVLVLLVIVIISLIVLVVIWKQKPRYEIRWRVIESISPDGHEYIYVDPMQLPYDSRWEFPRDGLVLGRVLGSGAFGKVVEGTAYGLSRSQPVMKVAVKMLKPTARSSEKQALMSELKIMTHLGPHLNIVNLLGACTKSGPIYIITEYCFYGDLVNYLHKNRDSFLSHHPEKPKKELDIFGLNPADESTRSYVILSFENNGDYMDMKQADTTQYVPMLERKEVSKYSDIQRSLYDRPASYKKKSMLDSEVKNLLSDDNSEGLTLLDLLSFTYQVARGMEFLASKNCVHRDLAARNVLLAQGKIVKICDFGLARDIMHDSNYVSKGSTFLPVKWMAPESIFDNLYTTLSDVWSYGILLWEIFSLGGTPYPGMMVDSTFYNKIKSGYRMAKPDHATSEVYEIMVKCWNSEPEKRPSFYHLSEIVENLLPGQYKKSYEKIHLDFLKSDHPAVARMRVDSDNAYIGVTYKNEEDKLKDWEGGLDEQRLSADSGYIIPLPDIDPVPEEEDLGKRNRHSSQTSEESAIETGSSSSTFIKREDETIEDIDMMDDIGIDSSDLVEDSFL
Method: as §1, §2

HER4 = biological target: T6, HER4 (Homo sapiens, UniProt Q15303); assay: ADP-Glo kinase assay, HER4; assay type: biochemical
T6 construct: purchased Promega
Method: as §1, §2

A549 (lung carcinoma) = assay: MTT cell proliferation assay, A549; assay type: cell-based; settings: Homo sapiens, A549, 72 h of exposition, read-out: Anti-proliferative activity IC50, A549
Method: as §3, §4

[3] = biological target: T7, IGF1R (insulin-like growth factor 1 receptor) (Homo sapiens, UniProt P08069); assay: ADP-Glo kinase assay, IGF1R; assay type: biochemical
T7 construct: purchased Promega
Method: as §1, §2

[4] = system: HL-60 (promyelocytic leukemia); assay: MTT cell proliferation assay, HL-60; assay type: cell-based; settings: Homo sapiens, HL-60, 72 h of exposition, read-out: Anti-proliferative activity IC50, HL-60
Method: as §3, §4

[5] = system: RPMI 1788 cells (B lymphocyte, human); assay: MTT cell proliferation assay, normal RPMI 1788 cells; assay type: cell-based; settings: normal human lymphoblastoid cells RPMI 1788, 72 h of exposition, read-out: Anti-proliferative activity IC50, RPMI 1788
Method: as §3, §4

[6] = system: OKP-GS (renal cell carcinoma); assay: MTT cell proliferation assay, OKP-GS; assay type: cell-based; settings: 72 h of exposition, read-out: Anti-proliferative activity IC50, OKP-GS
Method: as §3, §4

[7] = system: MCF-7 (breast adenocarcinoma); assay: MTT cell proliferation assay, MCF-7; assay type: cell-based; settings: Homo sapiens, MCF7, MCF-7, 72 h of exposition, read-out: Anti-proliferative activity IC50, MCF-7
Method: as §3, §4

HER2 = biological target: T8, HER2 (Homo sapiens, UniProt P04626); assay: ADP-Glo kinase assay, HER2; assay type: biochemical
T8 construct: purchased Promega
Method: as §1, §2

EGFR = biological target: T9, EGFR (Homo sapiens, UniProt P00533); assay: ADP-Glo kinase assay, EGFR; assay type: biochemical
T9 construct: purchased Promega

KDR (VEGFR-2) = biological target: T10, KDR (VEGFR-2) (Homo sapiens, UniProt P35968); assay: ADP-Glo kinase assay, KDR; assay type: biochemical
T10 construct: purchased Promega
T10 sequence (P35968 20-1356): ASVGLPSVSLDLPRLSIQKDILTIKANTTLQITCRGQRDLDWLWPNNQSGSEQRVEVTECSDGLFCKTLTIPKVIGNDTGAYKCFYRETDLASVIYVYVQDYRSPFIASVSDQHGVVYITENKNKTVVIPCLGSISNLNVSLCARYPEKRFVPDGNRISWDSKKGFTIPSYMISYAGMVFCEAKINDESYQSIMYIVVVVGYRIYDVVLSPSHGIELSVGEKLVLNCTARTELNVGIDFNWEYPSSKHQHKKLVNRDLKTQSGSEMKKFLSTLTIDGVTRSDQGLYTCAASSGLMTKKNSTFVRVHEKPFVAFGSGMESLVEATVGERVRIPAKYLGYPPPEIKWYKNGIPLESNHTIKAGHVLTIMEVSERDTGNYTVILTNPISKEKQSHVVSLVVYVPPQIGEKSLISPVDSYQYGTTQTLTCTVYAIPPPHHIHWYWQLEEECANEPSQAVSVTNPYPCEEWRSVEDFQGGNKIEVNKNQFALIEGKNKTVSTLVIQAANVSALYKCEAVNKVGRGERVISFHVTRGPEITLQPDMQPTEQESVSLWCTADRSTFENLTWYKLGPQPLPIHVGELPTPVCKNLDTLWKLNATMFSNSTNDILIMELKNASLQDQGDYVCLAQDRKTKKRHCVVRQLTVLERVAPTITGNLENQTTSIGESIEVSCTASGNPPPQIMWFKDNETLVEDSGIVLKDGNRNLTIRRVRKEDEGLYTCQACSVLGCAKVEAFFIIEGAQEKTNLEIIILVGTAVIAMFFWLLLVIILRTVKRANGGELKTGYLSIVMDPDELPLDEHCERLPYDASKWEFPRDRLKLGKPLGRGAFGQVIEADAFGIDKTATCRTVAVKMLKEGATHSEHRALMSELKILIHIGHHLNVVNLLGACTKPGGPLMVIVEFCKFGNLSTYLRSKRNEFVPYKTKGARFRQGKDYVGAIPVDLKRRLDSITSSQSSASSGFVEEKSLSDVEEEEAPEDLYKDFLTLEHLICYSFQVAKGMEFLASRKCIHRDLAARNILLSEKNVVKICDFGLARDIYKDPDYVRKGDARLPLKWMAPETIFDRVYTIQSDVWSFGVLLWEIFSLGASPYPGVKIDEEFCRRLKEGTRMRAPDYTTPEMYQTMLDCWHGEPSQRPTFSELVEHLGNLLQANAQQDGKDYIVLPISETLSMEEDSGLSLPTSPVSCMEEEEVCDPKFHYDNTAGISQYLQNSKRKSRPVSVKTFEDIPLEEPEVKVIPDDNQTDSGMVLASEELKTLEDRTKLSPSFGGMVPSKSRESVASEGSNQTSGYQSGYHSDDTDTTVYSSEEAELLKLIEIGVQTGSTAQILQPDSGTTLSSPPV

inhibition at 10 µM (Aurora A) | inhibition at 10 µM (Aurora B) | IC50 [1] | IC50 [2] | inhibition at 10 µM (InsR (insulin receptor)) | inhibition at 10 µM (PDGFRβ) | inhibition at 10 µM (PDGFRα) | inhibition at 10 µM (HER4) | IC50 (A549 (lung carcinoma)) | inhibition at 10 µM [3] | IC50 [4] | IC50 [6] | IC50 [7] | inhibition at 10 µM (HER2) | inhibition at 10 µM (EGFR) | melting point | inhibition at 10 µM (KDR (VEGFR-2)) | Structure (SMILES) | IC50 [5]
68% | 90% | – | – | – | – | – | – | – | – | – | – | – | – | – | – | – | CCN(CC)CCNC(=O)c1c(C)[nH]c(/C=C2\C(=O)Nc3ccc(F)cc32)c1C [Sunit., sunitinib, reference compound] | –
– | – | > 50 µM | > 50 µM | 17% | 20% | 19% | 2% | > 50 µM | 0% | > 50 µM | > 50 µM | > 50 µM | 39% | 4% | 202 to 205 °C | 16% | COc1ccc(C(=O)N2CCN(C(=O)c3ccc(C(=O)Nc4cccc(C(F)(F)F)c4)cc3)CC2)cc1 [Compound 19, 4-(4-(4-Methoxybenzoyl)piperazine-1-carbonyl)-N-(3-(trifluoromethyl)phenyl)benzamide] | > 50 µM
0% | 0% | 18.3 ± 1.15 µM | 35.49 ± 0.34 µM | 6% | 0% | 0% | 0% | > 50 µM | 0% | 18.2 ± 1.02 µM | > 50 µM | 24.7 ± 5.95 µM | 0% | 14% | 145 to 147 °C | 34% | O=C(Nc1cccc(C(F)(F)F)c1)c1cccc(C(=O)N2CCN(C(=O)c3ccccc3F)CC2)c1 [Compound 8, 3-(4-(2-Fluorobenzoyl)piperazine-1-carbonyl)-N-(3-(trifluoromethyl)phenyl)benzamide] | 24.9 ± 1.17 µM
0% | 0% | 26 ± 2.38 µM | 23.2 ± 1.81 µM | 0% | 0% | 17% | 0% | > 50 µM | 0% | 35.8 ± 3.19 µM | 13.2 ± 1.3 µM | 38.5 ± 1.95 µM | 19% | 1% | 304 to 306 °C | 33% | Cc1cn(-c2cc(NC(=O)c3cccc(C(=O)Nc4cc(-n5cnc(C)c5)cc(C(F)(F)F)c4)c3)cc(C(F)(F)F)c2)cn1 [Compound 10, N1,N3-bis(3-(4-methyl-1H-imidazol-1-yl)-5-(trifluoromethyl)phenyl)isophthalamide] | 13 ± 0.3 µM
0% | 0% | 21 ± 0.59 µM | 33.3 ± 3.45 µM | 0% | 24% | 20% | 37% | > 50 µM | 0% | 21.9 ± 1.59 µM | > 50 µM | 26.3 ± 3.71 µM | 64% | 90% | 97 to 101 °C | 33% | O=C(Nc1cccc(C(F)(F)F)c1)c1cccc(C(=O)N2CCN(C(=O)c3cccc(F)c3)CC2)c1 [Compound 9, 3-(4-(3-Fluorobenzoyl)piperazine-1-carbonyl)-N-(3-(trifluoromethyl)phenyl)benzamide] | 26.3 ± 1.88 µM
0% | 3% | 17 ± 0.2 µM | > 50 µM | 0% | 0% | 0% | 3% | > 50 µM | 0% | 26.4 ± 3.35 µM | > 50 µM | 15.5 ± 1.16 µM | 49% | 2% | 269 to 270 °C | 0% | Cc1cn(-c2cc(NC(=O)c3ccc(C(=O)Nc4cc([N+](=O)[O-])ccc4C)cc3)cc(C(F)(F)F)c2)cn1 [Compound 24, N1-(3-(4-methyl-1H-imidazol-1-yl)-5-(trifluoromethyl)phenyl)-N4-(2-methyl-5-nitrophenyl)terephthalamide] | 36.5 ± 0.86 µM
